In one assay the target is T1, COX-2 (Homo sapiens, UniProt P35354).
T1 construct: gene PTGS2; human recombinant COX-2
T1 sequence (P35354 18-604): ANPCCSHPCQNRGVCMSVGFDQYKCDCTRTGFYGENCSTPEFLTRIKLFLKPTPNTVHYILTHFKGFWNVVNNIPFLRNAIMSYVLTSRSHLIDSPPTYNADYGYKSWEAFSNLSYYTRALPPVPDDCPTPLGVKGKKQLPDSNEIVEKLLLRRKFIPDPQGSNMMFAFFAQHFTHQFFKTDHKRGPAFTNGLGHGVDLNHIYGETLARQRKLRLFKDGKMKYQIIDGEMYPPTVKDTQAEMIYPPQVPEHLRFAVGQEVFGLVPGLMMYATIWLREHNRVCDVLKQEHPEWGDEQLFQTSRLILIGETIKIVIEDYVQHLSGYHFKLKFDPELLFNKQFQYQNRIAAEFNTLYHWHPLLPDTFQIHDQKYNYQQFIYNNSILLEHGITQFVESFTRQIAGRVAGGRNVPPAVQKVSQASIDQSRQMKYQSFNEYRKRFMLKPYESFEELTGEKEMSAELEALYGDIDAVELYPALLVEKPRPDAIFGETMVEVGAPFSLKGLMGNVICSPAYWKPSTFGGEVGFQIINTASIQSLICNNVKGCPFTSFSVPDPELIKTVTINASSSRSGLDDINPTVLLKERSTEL
The assay can be described thus: Cayman COX inhibitor screening assay (prostaglandin ELISA). Format: biochemical. Background: ELISA stands for enzyme-linked immunosorbent assay.

In another assay the target is T2, COX-1 (Ovis aries, UniProt P05979).
T2 construct: gene PTGS1; ovine COX-1
T2 sequence (P05979 25-600): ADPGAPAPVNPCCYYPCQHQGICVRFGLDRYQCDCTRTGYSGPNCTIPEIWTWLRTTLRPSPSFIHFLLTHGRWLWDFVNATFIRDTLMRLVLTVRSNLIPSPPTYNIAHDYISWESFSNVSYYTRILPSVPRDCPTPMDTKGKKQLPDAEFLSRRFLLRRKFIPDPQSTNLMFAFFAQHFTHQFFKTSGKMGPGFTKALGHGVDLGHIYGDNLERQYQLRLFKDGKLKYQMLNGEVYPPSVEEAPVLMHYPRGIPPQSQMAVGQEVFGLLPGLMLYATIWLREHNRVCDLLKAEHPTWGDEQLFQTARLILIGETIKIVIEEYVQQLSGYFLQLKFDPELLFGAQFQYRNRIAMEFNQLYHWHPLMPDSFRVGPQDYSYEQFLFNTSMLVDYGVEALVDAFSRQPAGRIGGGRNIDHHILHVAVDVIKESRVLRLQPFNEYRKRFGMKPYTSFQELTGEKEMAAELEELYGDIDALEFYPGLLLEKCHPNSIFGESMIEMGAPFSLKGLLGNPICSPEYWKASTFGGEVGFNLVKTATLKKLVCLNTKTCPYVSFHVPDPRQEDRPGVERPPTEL
Described as above. The assay is classed as biochemical.

`COc1c(-c2ccc(O[C@@H]3O[C@H](CO)[C@@H](O)[C@H](O)[C@H]3O)c(O)c2)oc2cc(O[C@@H]3O[C@H](CO)[C@@H](O)[C@H](O)[C@H]3O)cc(O)c2c1=O` [quercetin-3-methoxy-4′-glucosyl-7-glucoside]: the half-maximal inhibitory concentration (IC50) at COX-2 was 3.11 µM; on COX-1, 4.31 µM.

Usually IC50 stands for the concentration that gives 50% inhibition. A lower IC50 goes with higher potency.

The record behind these values is article PMC6631596, “Analgesic and Anti-Inflammatory Activities of Quercetin-3-methoxy-4′-glucosyl-7-glucoside Isolated from Indian Medicinal Plant Melothria heterophylla” (Medicines, 2019).
